For assay [1], the system named is ER. Description: ER degradation after RNF111 or UBR5 knockdown (reporter K562; T47D western). Type of assay: cell-based, human. The following applies: K562 ER-GFP, shUBR5 / sgRNF111, Figure S8C, D. The method, then: (§1) Cells were analyzed for GFP vs mCherry expression.
Protein concentration was quantified via Pierce BCA Protein Assay Kit (ThermoFisher, 23225), and equal amounts of lysates were run on either SDS-PAGE 3–8% Tris-Acetate or 4–12% Bis-Tris Protein Gels (NuPAGE, ThermoFisher), then transferred to a PVDF membrane (Biorad, Wet Transfer System). Membranes were blocked for 30 minutes to 1 hour at room temperature in Odyssey Blocking Buffer/PBS (LI-COR Biosciences), and incubated with primary antibodies at 4 °C overnight. Stained membranes were washed three times in Tris-buffered saline with Tween 20 (TBS-T) and incubated for 1 hour at room temperature with secondary IRDye-conjugated antibodies (LI-COR Biosciences). Membranes were washed three times in TBS-T before imaging (Odyssey Imaging System, LI-COR Biosciences).

Another assay concerns ER reporter. Briefly: ER reporter degradation. Type of assay: cell-based, human. As to conditions: 1 μM (legend, SERDs).
Assay [2] relates to ER reporter (E3 ligase dependence). Briefly: Targeted CRISPR screens, ER reporter K562 cells: E3 ligase used. It counts as cell-based, human. The following applies: for E3 ligase used for ER degradation: K562 ER reporter, CRISPR screen; for E3 Ligase (Table S2): Supplemental Table S2. The method, then: To characterize the UPS pathway components involved in SERD-induced ER degradation, we performed CRISPR screens with our ER reporter in the presence multiple SERDs: fulvestrant, GDC-0927, elacestrant, giredestrant, camizestrant, amcenestrant, AZD-9496, brilanestrant, and LSZ-102. […] Taken together, these findings indicate that different classes of SERDs engage distinct ubiquitin ligases and degradation pathways to target ER.
The UPS and tiling CRISPR functional genomics screen was performed following previously described methods.[22] Briefly, the UPS CRISPR library targets 713 E1, E2, E3 ubiquitin ligases, and deubiquitinases and includes controls genes with a total of 2852 guide RNAs, cloned into the pXPR003 backbone. The UBR5 Tiling screen was created by CRISPR-SURF.[29] Viruses were produced in a T-175 format and ten percent by volume of the library virus was added to reporter cell lines in triplicates for transduction. Transduced cells were allowed to recover and expand for nine days, then treated with indicated ligand. Top and bottom 5% of cells by GFP signal were sorted for a total of at least 100,000 cells per replicate. Samples were processed as previously described.[22]
Reporter cell lines were treated with ATRA or 9-cis RA, and then sorted into four populations by eGFP/mCherry fluorescence ratios (Gates A-D), corresponding to the bottom and top 5–10% respectively (Figure S1D).[22],[23] Sorted cells were pelleted, lysed, and processed according to previous studies.[22] Briefly sgRNAs were amplified in two PCRs via Titanium Taq (Takara Bio 639210), Titanium Taq Buffer and 800uM dNTP mix and eight staggered forward primers. The first PCR also contained 200 nM SBS3-Stagger-pXPR003 forward primer and 200 nM SBS12-pXPR003 reverse primer (cycles: 5 minutes at 94°C, 15 × (30 sec at 94°C, 15 sec at 58°C, 30 sec at 72°C), 2 minutes at 72°C). Illumina adapters and barcodes were added in the second PCR (200 nM P5-SBS3 forward primer, 200 nM P7-barcode-SBS12 reverse primer). Samples were pooled and purified by agarose gel-electrophoresis (Qiagen) and NaOAc/isopropanol precipitation. Amplified guides were quantified by next-generation sequencing (Genomics Platform, Broad Institute), and analyzed for enrichment in Gate A over Gate D, representing degradation rescue.

Assay [3] relates to HR+ HER2- advanced breast cancer. The following applies: cited from earlier work; for clinical trial outcome, phase II: second-line treatment. From the text: page 11: Supplemental Table S2: Clinical Development of Selective Estrogen Receptor Degraders (SERDs), related to Figure 6 Clinical Development Status for HR+ HER2- Advanced Compound Side Chain E3 Ligase Breast Cancer Treatment Fulvestrant Long Alkyl RNF111 FDA approved for first-line and second-line treatments1,2 FDA approved for second-line, ESR1-mutated disease Elacestrant (RAD1901) Basic Amino RNF111 treatment3,4; Ongoing phase III trial for first-line treatment (NCT05512364) Ongoing Phase III trial for first-line treatment Camizestrant (AZD9833) Basic Amino RNF111 (NCT04711252, NCT0496493 ...

The subject of assay [4] is ER. The following applies: ref [17], [53]; cited from earlier work. The text has this:
SERDs are a class of molecules targeting the ER for the treatment of breast cancer. […] Given that UBR5 is similarly recruited to the NR hydrophobic cleft, we hypothesized that fulvestrant and other SERDs may employ a different mechanism for ER degradation. […] One of the best understood SERDs, fulvestrant, drastically remodels the hydrophobic cleft[16],[17] in a manner incompatible with UBR5 or NCOA binding. […] Strikingly, this correlates with clinical utility, hallmarked by the wide use of fulvestrant and recent approval of elacestrant,[53] both of which employ RNF111, in contrast to UBR5 SERDs (Table S2), none of which have been approved for clinical use. The heterogeneity of ER transcriptional pro ...

The subject of assay [5] is thyroid receptor beta (THRB). Description: THRB reporter degradation in U937. It counts as cell-based, human. The following applies: for THRB degradation, significance: T3 vs DMSO, n = 3. The method, then: as §1
Assay [6] concerns progesterone receptor (PGR). Briefly: PGR reporter degradation in U937. It counts as cell-based, human. As to conditions: for PGR degradation, significance: R5020 vs DMSO, n = 3. The protocol: Additional NRs that have well-characterized ligand-induced degradation include vitamin D receptor (VDR),[46] progesterone receptor (PGR),[47] and thyroid receptor beta (THRB).[7]
as §1

Where two headings read alike, the source gives them in different places.

In the case of `CC(F)(F)c1cc(F)ccc1-c1sc2cc(O)ccc2c1Oc1ccc(/C=C/C(=O)O)cc1` [LSZ-102], in the assay on ER [1], the “regulated class of ER degradation (RNF111 or UBR5)” value (“regulated class of ER degradation” for short) is recorded as “UBR5 Regulated”. In the assay on ER reporter, the ER reporter degradation result is recorded as “induced ER reporter degradation”. Further, in assay [2], the “E3 ligase used for ER degradation” value is “required UBR5 for degradation” and the “E3 Ligase (Table S2)” value is listed as “UBR5”.
Regarding `C[C@@H]1Cc2c([nH]c3ccccc23)[C@@H](c2c(F)cc(NC3CN(CCCF)C3)cc2F)N1CC(F)(F)CO` [giredestrant], in the assay on ER [1], the “regulated class of ER degradation” value was “RNF111 Regulated”. For the same compound, in the assay on ER reporter, the ER reporter degradation result is given as “induced ER reporter degradation”. Moreover, in assay [2], the “E3 ligase used for ER degradation” value is “employed a different E3 ligase, RNF111” and the “E3 Ligase (Table S2)” value is given as “RNF111”. Besides, in assay [3] (giredestrant, NCT04576455, ref 6 (supplement)), the “clinical trial outcome, phase II” value is “Failed primary endpoint in phase II trial”.
On to `CC1=C(c2cccc(O)c2)[C@H](c2ccc(OCCN3CC(CF)C3)cc2)Oc2ccc(O)cc21` [GDC-0927], for which the ER reporter degradation result in the assay on ER reporter is listed as “induced ER reporter degradation”. In assay [2], the “E3 ligase used for ER degradation” value is given as “employed a different E3 ligase, RNF111” and the “E3 Ligase (Table S2)” value is “RNF111”.
Consider `CCNCCc1ccc(CN(CC)c2cc(OC)ccc2[C@@H]2CCc3cc(O)ccc3C2)cc1` [elacestrant], for which, in the assay on ER [4], the “ER degradation (literature)” value was “lead to ER degradation”. Moreover, the “regulated class of ER degradation” value in the assay with ER [1] is “RNF111 Regulated”. In the assay with ER reporter, the ER reporter degradation result is “induced ER reporter degradation”. Also, in assay [2], the “E3 ligase used for ER degradation” value was “employed a different E3 ligase, RNF111” and the “E3 Ligase (Table S2)” value was “RNF111”.
As for `O=C(O)c1ccc2c(c1)CCCC(c1ccc(Cl)cc1Cl)=C2c1ccc(O[C@H]2CCN(CCCF)C2)cc1` [amcenestrant], the “regulated class of ER degradation” value with ER [1] is given as “RNF111 Regulated”. Besides, in the assay on ER reporter, the ER reporter degradation result was “induced ER reporter degradation”. Also, in assay [2], the “E3 ligase used for ER degradation” value is listed as “employed a different E3 ligase, RNF111” and the “E3 Ligase (Table S2)” value was “RNF111”. For the same compound, in assay [3] (amcenestrant, first-line treatment, NCT04478266, ref 7 (supplement)), the “clinical trial outcome, phase III” value was “Failed primary endpoint phase III trial for first-line”. Besides, the “clinical trial outcome, phase II” value in assay [3] (amcenestrant, NCT04059484, ref 8 (supplement)) is recorded as “Failed primary endpoint in”.
For `CCN(CCCCCOCC(=O)N[C@H](C(=O)N1C[C@H](O)C[C@H]1C(=O)N[C@@H](C)c1ccc(-c2scnc2C)cc1)C(C)(C)C)CCOc1ccc(C(=O)c2c(-c3ccc(O)cc3)sc3cc(O)ccc23)cc1` [ERD-308], the ER reporter degradation entry in the assay on ER reporter is “induced ER reporter degradation”. In assay [2], the “E3 ligase used for ER degradation” value is recorded as “von Hippel-Lindau (VHL)” and the “E3 Ligase (Table S2)” value was “VHL”.
As for `N[C@@H](Cc1cc(I)c(Oc2cc(I)c(O)c(I)c2)c(I)c1)C(=O)O` [levothyroxine [T3], levothyroxine], the “THRB degradation, significance” value in assay [5] (LUC1 shRNA), in assay [5] (LUC2 shRNA), in assay [5] (UBR5-1 shRNA) and in assay [5] (UBR5-2 shRNA) was “** (**p<0.005)” in each case. The THRB reporter degradation result in assay [5] (U937, T3) is “confirmed degradation”. Besides, the “UBR5 dependence of THRB degradation” value in assay [5] (U937, T3) is “not dependent on UBR5”.
For `C[C@@H]1Cc2c([nH]c3ccccc23)[C@@H](c2c(F)cc(/C=C/C(=O)O)cc2F)N1CC(C)(C)F` [AZD-9496], the “regulated class of ER degradation” value in the assay with ER [1] is “UBR5 Regulated”. Also, the ER reporter degradation result with ER reporter was “induced ER reporter degradation”. In addition, in assay [2], the “E3 ligase used for ER degradation” value is recorded as “required UBR5 for degradation” and the “E3 Ligase (Table S2)” value is given as “UBR5”.
As for `C[C@@H]1Cc2c(ccc3[nH]ncc23)[C@@H](c2ccc(NC3CN(CCCF)C3)cn2)N1CC(F)(F)F` [camizestrant], the “regulated class of ER degradation” value in the assay with ER [1] is reported as “RNF111 Regulated”. Further, the ER reporter degradation result in the assay on ER reporter was “induced ER reporter degradation”. Also, in assay [2], the “E3 ligase used for ER degradation” value was “employed a different E3 ligase, RNF111” and the “E3 Ligase (Table S2)” value is “RNF111”. Moreover, the “clinical trial outcome, phase II” value in assay [3] (camizestrant, NCT04214288, ref 5 (supplement)) is recorded as “Successful phase II trial”.
Consider `CCC(=O)[C@@]1(C)CC[C@H]2[C@@H]3CCC4=CC(=O)CCC4=C3CC[C@@]21C` [R5020], for which, in assay [6] (LUC1 shRNA), the “PGR degradation, significance” value is reported as “*** (***p<0.0005)”. Besides, the “PGR degradation, significance” value in assay [6] (LUC2 shRNA) is listed as “* (*p<0.05)”. In assay [6] (U937, R5020), the PGR reporter degradation result is “confirmed degradation” and the “effect of UBR5 shRNAs on PGR degradation” value is listed as “rescued degradation”.
Consider `O=C1CC[C@H](N2Cc3cc(N4CCN(CC5CCN(c6ccc([C@@H]7c8ccc(O)cc8CC[C@@H]7c7ccccc7)cc6)CC5)CC4)ccc3C2=O)C(=O)N1` [ARV-471], for which the ER reporter degradation entry in the assay on ER reporter is on record as “induced ER reporter degradation”. Further, in assay [2], the “E3 ligase used for ER degradation” value is given as “Cereblon (CRBN)” and the “E3 Ligase (Table S2)” value is “CRBN”.

The values above are taken from article PMC11134608, “UBR5 forms ligand-dependent complexes on chromatin to regulate nuclear hormone receptor stability” (Molecular cell, 2023).
